Laboratory results as given in patent US12606561B2, “Substituted pyrazolo[1,5-a][1,3,5]triazines as CDK inhibitors” (QURIENT CO., LTD., priority 2018, dated 2026).
Where two headings read alike, the source gives them in different places.

Tests used:
[1] = target: T1, CDK5/p25 (Homo sapiens, UniProt Q00535); assay: Enzymatic assay for CDK5 (LANCE Ultra kinase assay, FRET based); format: biochemical; conditions: ATP at Km
T1 construct: purchased Invitrogen PR8543B
Procedure, shortened: (§1)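 TR-FRET kinase assay at ATP Km with ULight-MBP peptide (68 nM) and Eu-anti-phospho-MBP antibody; CDK2/Cyclin A at […], CDK5/p25 at […]. 8-dose 4-fold compound dilutions; 60 min kinase reaction at 23° C., EDTA stop, 60 min detection, read at 615/665 nm.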

[2] = tested on: H460; assay: Cellular H460 viability assay (CellTiter-Glo, 72 hours); format: cell-based; conditions: Homo sapiens, NCI-H460; H460 cells
Procedure: All cell lines were routinely tested for mycoplasma.
To effect of the CDK7 inhibitor to inhibit the growth of target cancer cells, viability assay were conducted a 72 hour time period. Briefly, the candidate cell line was plated in 96 well plate at the following density of cells respectively. 1×10^4 cells/well for MV4-11, 5×10^3 for H460 and OVCAR-3, and 1×10^3 for A2780. […] DMSO solvent without compound served as a control and final DMSO concentration lest than 0.1%. After 72 hours of incubation at 37° C., 5% CO2 incubator, cells were analyzed for the viability using the CellTiter-Glo Luminescent Cell Viability Assay (Promega, Cat #G7570). All viability assays were performed in duplicate and Luminescence was read using an Envision (Perkin Elmer, USA). Data was analyzed using XLfit software.

[3] = tested on: OVCAR-3; assay: OVCAR-3 viability assay (CellTiter-Glo, 72 hours); format: cell-based; conditions: Homo sapiens; OVCAR-3 cells
Procedure, shortened: (§2)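 After a 24 h attachment period, cells received a 0.0015–10 uM compound titration and were incubated 72 h at 37° C, 5% CO2. Viability came from CellTiter-Glo luminescence measured in duplicate.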

[4] = target: T2, CDK1/Cyclin B (Homo sapiens, UniProt P06493); assay: Enzymatic assay for CDK1 (LANCE Ultra kinase assay, FRET based); format: biochemical
T2 construct: purchased Invitrogen PR4768C
Procedure, shortened: (§3)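 With ATP set at its Km, compounds were tested against purified CDK/cyclin complexes phosphorylating a ULight-labeled peptide. Signal came from FRET between the peptide and a Europium-labeled anti-phospho-antibody.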

[5] = tested on: A2780; assay: A2780 viability assay (CellTiter-Glo, 72 hours); format: cell-based; conditions: Homo sapiens; A2780 cells
Procedure, shortened: as §2

[6] = tested on: MV4-11; assay: Cellular MV4-11 viability assay (CellTiter-Glo, 72 hours); format: cell-based; conditions: Homo sapiens; MV4-11 cells
Procedure, shortened: as §2

[7] = target: T3, CDK2/Cyclin A (Homo sapiens, UniProt P24941); assay: Enzymatic assay for CDK2 (LANCE Ultra kinase assay, FRET based); format: biochemical; conditions: ATP at Km
T3 construct: purchased Invitrogen PV6290
Procedure, shortened: as §1

[8] = target: T4, CDK7/Cyclin H/MNAT1 (Homo sapiens, UniProt P50613); assay: Enzymatic assay for CDK7 (LANCE Ultra kinase assay, FRET based); format: biochemical; conditions: for IC50: ATP at Km
T4 construct: purchased Invitrogen PR6749B
Procedure, shortened: as §3

[9] = ATP at Km, read-out: CDK1 enzymatic activity IC50

T4 sequence (P50613 whole entry): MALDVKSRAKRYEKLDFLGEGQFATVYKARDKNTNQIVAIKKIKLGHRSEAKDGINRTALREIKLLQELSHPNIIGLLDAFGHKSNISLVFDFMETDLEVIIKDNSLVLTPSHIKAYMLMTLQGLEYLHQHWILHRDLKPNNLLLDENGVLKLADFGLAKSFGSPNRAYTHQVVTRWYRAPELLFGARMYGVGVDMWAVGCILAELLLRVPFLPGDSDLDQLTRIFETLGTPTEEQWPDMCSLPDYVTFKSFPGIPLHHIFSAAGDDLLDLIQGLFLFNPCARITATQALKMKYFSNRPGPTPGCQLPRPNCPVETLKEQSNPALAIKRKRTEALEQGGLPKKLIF
T4 sequence (P51946 whole entry partner): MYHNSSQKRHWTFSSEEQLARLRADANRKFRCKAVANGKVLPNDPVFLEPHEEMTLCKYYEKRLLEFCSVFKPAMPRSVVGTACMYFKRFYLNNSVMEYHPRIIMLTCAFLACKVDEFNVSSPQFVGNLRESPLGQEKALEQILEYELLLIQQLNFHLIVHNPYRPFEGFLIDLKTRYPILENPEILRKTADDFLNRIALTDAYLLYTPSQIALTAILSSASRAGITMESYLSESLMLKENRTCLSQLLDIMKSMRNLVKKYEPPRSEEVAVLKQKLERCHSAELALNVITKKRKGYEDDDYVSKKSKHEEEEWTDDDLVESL
T4 sequence (P51948 whole entry partner): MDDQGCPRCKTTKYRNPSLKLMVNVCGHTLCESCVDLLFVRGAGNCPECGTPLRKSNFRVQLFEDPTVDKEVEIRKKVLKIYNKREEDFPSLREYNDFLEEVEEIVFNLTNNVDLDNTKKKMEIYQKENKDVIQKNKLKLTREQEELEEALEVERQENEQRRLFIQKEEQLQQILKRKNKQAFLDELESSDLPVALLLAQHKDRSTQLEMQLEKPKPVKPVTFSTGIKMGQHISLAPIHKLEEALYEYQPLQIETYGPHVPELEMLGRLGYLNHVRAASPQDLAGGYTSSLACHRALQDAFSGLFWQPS
T1 sequence (Q00535 whole entry): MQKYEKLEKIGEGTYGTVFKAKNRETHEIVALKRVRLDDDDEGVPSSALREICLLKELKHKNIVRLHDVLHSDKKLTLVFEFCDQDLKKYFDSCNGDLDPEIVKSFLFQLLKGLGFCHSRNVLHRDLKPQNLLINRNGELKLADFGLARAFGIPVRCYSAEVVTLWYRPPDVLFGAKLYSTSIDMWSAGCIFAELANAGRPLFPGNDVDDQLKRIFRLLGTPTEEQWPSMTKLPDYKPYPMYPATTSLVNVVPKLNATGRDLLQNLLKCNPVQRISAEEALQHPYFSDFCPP
T1 sequence (Q15078 99-307 partner limits assumed): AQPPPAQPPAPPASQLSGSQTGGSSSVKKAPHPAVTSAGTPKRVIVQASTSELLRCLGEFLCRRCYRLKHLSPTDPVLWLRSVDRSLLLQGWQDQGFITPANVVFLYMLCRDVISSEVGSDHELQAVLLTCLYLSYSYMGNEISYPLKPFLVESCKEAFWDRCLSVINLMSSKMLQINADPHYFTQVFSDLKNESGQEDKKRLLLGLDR
T2 sequence (P06493 whole entry): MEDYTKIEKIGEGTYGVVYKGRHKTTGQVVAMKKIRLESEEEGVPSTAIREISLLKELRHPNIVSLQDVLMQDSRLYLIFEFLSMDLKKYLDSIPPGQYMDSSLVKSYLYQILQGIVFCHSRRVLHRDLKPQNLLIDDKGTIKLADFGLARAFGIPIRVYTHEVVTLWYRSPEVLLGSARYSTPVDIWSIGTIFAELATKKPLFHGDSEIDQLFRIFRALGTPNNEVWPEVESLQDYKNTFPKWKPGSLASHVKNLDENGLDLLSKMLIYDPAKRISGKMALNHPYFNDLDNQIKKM
T2 sequence (P14635 whole entry partner): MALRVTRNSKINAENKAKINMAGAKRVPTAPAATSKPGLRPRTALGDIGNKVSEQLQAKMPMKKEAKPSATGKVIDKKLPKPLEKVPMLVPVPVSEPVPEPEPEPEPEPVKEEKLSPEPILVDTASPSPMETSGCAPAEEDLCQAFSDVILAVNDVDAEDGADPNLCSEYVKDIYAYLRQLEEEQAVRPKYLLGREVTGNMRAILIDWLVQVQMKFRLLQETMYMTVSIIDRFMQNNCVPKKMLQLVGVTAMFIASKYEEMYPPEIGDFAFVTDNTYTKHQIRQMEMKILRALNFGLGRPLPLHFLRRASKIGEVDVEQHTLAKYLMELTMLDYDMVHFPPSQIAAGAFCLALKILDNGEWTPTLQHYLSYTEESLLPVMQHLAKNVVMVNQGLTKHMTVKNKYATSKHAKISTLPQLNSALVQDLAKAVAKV

SMILES | IC50 [1] | IC50 [2] | IC50 [3] | IC50 [4, 9] | IC50 [5] | IC50 [6] | IC50 [7] | IC50 [8] | CDK1/CDK7: Selectivity of CDK7 inhibition over CDK1 inhibition [8] | CDK2/CDK7: Selectivity of CDK7 inhibition over CDK2 inhibition [8] | CDK5/CDK7: Selectivity of CDK7 inhibition over CDK5 inhibition [8] | IC50 [4]
CC(C)c1cnn2c(NCc3ccccc3-c3ccc4cccc(NC(=O)/C=C/CN(C)C)c4n3)nc(N3CCC(N)CC3)nc12 [Compound 20] | 100 to 1000 nM | < 1000 nM | < 1000 nM | > 1000 nM | < 1000 nM | < 1000 nM | > 1000 nM | < 100 nM | B (B indicates 50 < [fold] ≤ 500) | A (A indicates [fold] > 500) | B (B indicates 50 < [fold] ≤ 500) | 
CC(C)c1cnn2c(NCc3ccccc3-c3nccc4cc(NC(=O)/C=C/CN(C)C)ccc34)nc(N[C@H]3CC[C@H](O)CC3)nc12 [Compound 27] | > 1000 nM | < 1000 nM | < 1000 nM | > 1000 nM | < 1000 nM | < 1000 nM | > 1000 nM | < 100 nM | B (B indicates 50 < [fold] ≤ 500) | B (B indicates 50 < [fold] ≤ 500) | B (B indicates 50 < [fold] ≤ 500) | 
C=CC(=O)Nc1cccc(Oc2cccc(CNc3nc(N4CCC(N(C)C)CC4)nc4c(C(C)C)cnn34)c2)c1 [Compound 14] | 100 to 1000 nM | < 1000 nM |  | > 1000 nM |  |  | > 1000 nM | < 100 nM | A (A indicates [fold] > 500) | B (B indicates 50 < [fold] ≤ 500) | B (B indicates 50 < [fold] ≤ 500) | 
C=CC(=O)Nc1cccc(Oc2ccccc2CNc2nc(N3CCC(N)CC3)nc3c(C(C)C)cnn23)c1 [Compound 7] | > 1000 nM | < 1000 nM |  | > 1000 nM |  |  | > 1000 nM | < 100 nM | A (A indicates [fold] > 500) | A (A indicates [fold] > 500) | B (B indicates 50 < [fold] ≤ 500) | 
CC(C)c1cnn2c(NCc3ccccc3-c3cc4cc(NC(=O)/C=C/CN(C)C)ccc4[nH]3)nc(N3CCC(N)CC3)nc12 [Compound 19] | < 100 nM | 1000 to 10000 nM |  | 100 to 1000 nM |  |  | < 100 nM | < 100 nM | C (C indicates [fold] ≤ 50) | C (C indicates [fold] ≤ 50) | C (C indicates [fold] ≤ 50) | 
CC(C)c1cnn2c(NCc3ccccc3-c3cc4c(NC(=O)/C=C/CN(C)C)cccc4[nH]3)nc(N3CCC(N)CC3)nc12 [Compound 3] | < 100 nM | < 1000 nM | < 1000 nM | 100 to 1000 nM | < 1000 nM | < 1000 nM | 100 to 1000 nM | < 100 nM | C (C indicates [fold] ≤ 50) | C (C indicates [fold] ≤ 50) | C (C indicates [fold] ≤ 50) | 
C=CC(=O)Nc1cccc(Oc2cccc(CNc3nc(N4CCC(N)CC4)nc4c(C(C)C)cnn34)c2)c1 [Compound 5] | 100 to 1000 nM | < 1000 nM |  | > 1000 nM |  |  | 100 to 1000 nM | < 100 nM | B (B indicates 50 < [fold] ≤ 500) | B (B indicates 50 < [fold] ≤ 500) | C (C indicates [fold] ≤ 50) | 
CC(C)c1cnn2c(NCc3ccccc3-n3cc4cc(NC(=O)/C=C/CN(C)C)ccc4n3)nc(N3CCC(N)CC3)nc12 [Compound 24] | 100 to 1000 nM | 1000 to 10000 nM |  | 100 to 1000 nM |  |  | 100 to 1000 nM | < 100 nM | B (B indicates 50 < [fold] ≤ 500) | C (C indicates [fold] ≤ 50) | C (C indicates [fold] ≤ 50) | 
CC(C)c1cnn2c(NCc3cccc(NC(=O)c4cccc(NC(=O)/C=C/CN(C)C)c4)c3)nc(N3CCC(N)CC3)nc12 [Compound 1] | 100 to 1000 nM | 1000 to 10000 nM |  |  |  |  | 100 to 1000 nM | < 100 nM | B (B indicates 50 < [fold] ≤ 500) | B (B indicates 50 < [fold] ≤ 500) | C (C indicates [fold] ≤ 50) | > 1000 nM
CC(C)c1cnn2c(NCc3ccccc3OC3CCN(C(=O)/C=C/CN(C)C)CC3)nc(N3CCC(N)CC3)nc12 [Compound 6] | 100 to 1000 nM | < 1000 nM |  | > 1000 nM |  |  | > 1000 nM | < 100 nM | A (A indicates [fold] > 500) | A (A indicates [fold] > 500) | C (C indicates [fold] ≤ 50) | 
CC(C)c1cnn2c(NCc3cccc(Oc4ccc(Cl)c(NC(=O)/C=C/CN(C)C)c4)c3)nc(N3CCC(N)CC3)nc12 [Compound 15] | 100 to 1000 nM | < 1000 nM |  | > 1000 nM |  |  | 100 to 1000 nM | < 100 nM | A (A indicates [fold] > 500) | B (B indicates 50 < [fold] ≤ 500) | B (B indicates 50 < [fold] ≤ 500) | 
CC(C)c1cnn2c(NCc3cccc(NC4CCCN(C(=O)/C=C/CN(C)C)CC4)c3)nc(N3CCC(N)CC3)nc12 (racemic) [Compound 21] | 100 to 1000 nM | 1000 to 10000 nM |  | > 1000 nM |  |  | > 1000 nM | < 100 nM | A (A indicates [fold] > 500) | B (B indicates 50 < [fold] ≤ 500) | B (B indicates 50 < [fold] ≤ 500) | 
CC(C)c1cnn2c(NCc3cccc(NC(=O)C4CCCN(C(=O)/C=C/CN(C)C)CC4)c3)nc(N3CCC(N)CC3)nc12 (racemic) [Compound 22] | 100 to 1000 nM | 1000 to 10000 nM |  | > 1000 nM |  |  | 100 to 1000 nM | < 100 nM | A (A indicates [fold] > 500) | B (B indicates 50 < [fold] ≤ 500) | C (C indicates [fold] ≤ 50) | 
CC(C)c1cnn2c(NCc3ccccc3-c3cc4cccc(NC(=O)/C=C/CN(C)C)c4[nH]3)nc(N3CCC(N)CC3)nc12 [Compound 25] | < 100 nM | < 1000 nM | < 1000 nM | 100 to 1000 nM | < 1000 nM | < 1000 nM | 100 to 1000 nM | < 100 nM | B (B indicates 50 < [fold] ≤ 500) | C (C indicates [fold] ≤ 50) | C (C indicates [fold] ≤ 50) | 
CC(C)c1cnn2c(NCc3cccc(-c4cc5cc(NC(=O)/C=C/CN(C)C)ccc5[nH]4)c3)nc(N3CCC(N)CC3)nc12 [Compound 23] | 100 to 1000 nM | 1000 to 10000 nM |  | > 1000 nM |  |  | > 1000 nM | < 100 nM | B (B indicates 50 < [fold] ≤ 500) | C (C indicates [fold] ≤ 50) | C (C indicates [fold] ≤ 50) | 
CC(C)c1cnn2c(NCc3cccc4ccc(NC(=O)/C=C/CN(C)C)nc34)nc(N3CCC(N)CC3)nc12 [Compound 12] | 100 to 1000 nM | < 1000 nM |  | > 1000 nM |  |  | > 1000 nM | < 100 nM | A (A indicates [fold] > 500) | B (B indicates 50 < [fold] ≤ 500) | C (C indicates [fold] ≤ 50) | 
